Earlier results on one compound are cited in patent US20160367580A1, “IMPROVED EXTENDED-ACTION TILMICOSIN AND USE THEREOF IN TREATMENT OF BOVINE RESPIRATORY DISEASE COMPLEX (BRD) AND IN DRY COW PERIOD” (UNIVERSIDAD NACIONAL AUTONOMA DE MEXICO, priority 2014, published 2016).

The test system of one data set is Staphylococcus aureus. The settings on record: most of Staphylococcus aureus.
For data set [1] the following is noted: in vivo.

As for `CC[C@H]1OC(=O)C[C@@H](O)[C@H](C)[C@@H](O[C@@H]2O[C@H](C)[C@@H](O)[C@H](N(C)C)[C@H]2O)[C@@H](CCN2C[C@H](C)C[C@H](C)C2)C[C@@H](C)C(=O)/C=C/C(C)=C/[C@@H]1CO[C@@H]1O[C@H](C)[C@@H](O)[C@@H](OC)[C@H]1OC` [tilmicosin], in the data set with Staphylococcus aureus, the CMI value is less than 1.0 µg/mL. In data set [1], the “plasma concentration not to be exceeded (cardiotoxicity with tachycardia)” value is not above 4000 ng/mL.
